Measured values from patent US20260200905A1, “MICROBIOCIDAL TETRAHYDROISOQUINOLINE DERIVATIVES” (SYNGENTA CROP PROTECTION AG, priority 2022, published 2026).

Experiments:
Format in all cases: cell-based
[1] = system: Mycosphaerella arachidis (Cercospora arachidicola); assay: Mycosphaerella arachidis (Cercospora arachidicola) / liquid culture (early leaf spot); details: growth inhibition photometrically 4 to 5 days after application, read-out: control of Mycosphaerella arachidis
Description: (§1) Example B6: Mycosphaerella arachidis (Cercospora arachidicola)/Liquid Culture (Early Leaf Spot) Conidia of the fungus from cryogenic storage are directly mixed into nutrient broth (PDB potato dextrose broth). After placing a (DMSO) solution of test compound into a microtiter plate (96-well format), the nutrient broth containing the fungal spores is added. The test plates are incubated at 24° C. and the inhibition of growth is determined photometrically 4 to 5 days after application.

[2] = system: Monographella nivalis (Microdochium nivale); assay: Monographella nivalis (Microdochium nivale) / liquid culture (foot rot cereals); details: growth inhibition photometrically 4 to 5 days after application, read-out: control of Monographella nivalis
Description: as §1, with “B5: Monographella nivalis (Microdochium nivale)/Liquid” for “B6: Mycosphaerella arachidis (Cercospora arachidicola)/Liquid”, “(Foot Rot Cereals)” for “(Early Leaf Spot)”

[3] = system: Mycosphaerella graminicola (Septoria tritici); assay: Mycosphaerella graminicola (Septoria tritici) / liquid culture (Septoria blotch); details: Zymoseptoria tritici, growth inhibition photometrically 4 to 5 days after application, read-out: control of Mycosphaerella graminicola
Description: as §1, with “B12:” for “B6:”, “graminicola (Septoria tritici)/Liquid” for “arachidis (Cercospora arachidicola)/Liquid”, “(Septoria Blotch)” for “(Early Leaf Spot)”

O=C(c1cc(-c2ccc(F)cc2F)on1)N1Cc2ccccc2C(c2cccnc2)C1 (stereo not drawn) [Compound P-5, [5-(2,4-difluorophenyl)isoxazol-3-yl]-[4-(3-pyridyl)-3,4-dihydro-1H-isoquinolin-2-yl]methanone]
inhibition of growth at 20 ppm [1]: ≥ 80%
inhibition of growth at 20 ppm [2]: ≥ 80%
inhibition of growth at 20 ppm [3]: ≥ 80%

Cc1nc(C2CN(C(=O)c3cc(-c4ccc(F)cc4F)on3)Cc3ccccc32)c(Cl)n1C (stereo not drawn) [Compound P-17, [4-(5-chloro-1,2-dimethyl-imidazol-4-yl)-3,4-dihydro-1H-isoquinolin-2-yl]-[5-(2,4-difluorophenyl)isoxazol-3-yl]methanone]
inhibition of growth at 20 ppm [3]: ≥ 80%

O=C(c1cc(-c2ccccc2)on1)N1Cc2ccccc2C(c2cnccc2Cl)C1 (stereo not drawn) [Compound P-30, [4-(4-chloro-3-pyridyl)-3,4-dihydro-1H-isoquinolin-2-yl]-(5-phenylisoxazol-3-yl)methanone]
inhibition of growth at 20 ppm [3]: ≥ 80%

Cc1c(C2CN(C(=O)c3cc(-c4ccc(F)cc4)on3)Cc3ccccc32)cc(C#N)n1C (stereo not drawn) [Compound P-18, 4-[2-[5-(4-fluorophenyl)isoxazole-3-carbonyl]-3,4-dihydro-1H-isoquinolin-4-yl]-1,5-dimethyl-pyrrole-2-carbonitrile]
inhibition of growth at 20 ppm [3]: ≥ 80%

CC1(c2cccnc2)CN(C(=O)c2cc(-c3ccc(F)cc3F)on2)Cc2ccccc21 (stereo not drawn) [Compound P-27, [5-(2,4-difluorophenyl)isoxazol-3-yl]-[4-methyl-4-(3-pyridyl)-1,3-dihydroisoquinolin-2-yl]methanone]
inhibition of growth at 20 ppm [3]: ≥ 80%

Cn1cnc(C2CN(C(=O)c3cc(-c4ccc(F)cc4F)on3)Cc3ccccc32)n1 (stereo not drawn) [Compound P-33, [5-(2,4-difluorophenyl)isoxazol-3-yl]-[4-(1-methyl-1,2,4-triazol-3-yl)-3,4-dihydro-1H-isoquinolin-2-yl]methanone]
inhibition of growth at 20 ppm [3]: ≥ 80%

O=C(c1cc(-c2ccc(F)cc2F)on1)N1Cc2cccc(F)c2C(c2cccnc2)C1 (stereo not drawn) [Compound P-9, [5-(2,4-difluorophenyl)isoxazol-3-yl]-[5-fluoro-4-(3-pyridyl)-3,4-dihydro-1H-isoquinolin-2-yl]methanone]
inhibition of growth at 20 ppm [1]: ≥ 80%
inhibition of growth at 20 ppm [2]: ≥ 80%
inhibition of growth at 20 ppm [3]: ≥ 80%

O=C(c1cc(-c2ccc(F)cc2F)on1)N1Cc2ccccc2C(c2ccc(F)nc2)C1 (stereo not drawn) [Compound P-12, [5-(2,4-difluorophenyl)isoxazol-3-yl]-[4-(6-fluoro-3-pyridyl)-3,4-dihydro-1H-isoquinolin-2-yl]methanone]
inhibition of growth at 20 ppm [2]: ≥ 80%
inhibition of growth at 20 ppm [3]: ≥ 80%

Cn1c(Cl)nc(C2CN(C(=O)c3cc(-c4ccc(F)cc4F)on3)Cc3ccccc32)c1Cl (stereo not drawn) [Compound P-10, [4-(2,5-dichloro-1-methyl-imidazol-4-yl)-3,4-dihydro-1H-isoquinolin-2-yl]-[5-(2,4-difluorophenyl)isoxazol-3-yl]methanone]
inhibition of growth at 20 ppm [1]: ≥ 80%
inhibition of growth at 20 ppm [3]: ≥ 80%

Cc1nc(C2CN(C(=O)c3cc(-c4ccc(F)cc4F)on3)Cc3ccccc32)nn1C (stereo not drawn) [Compound P-39, [5-(2,4-difluorophenyl)isoxazol-3-yl]-[4-(1,5-dimethyl-1,2,4-triazol-3-yl)-3,4-dihydro-1H-isoquinolin-2-yl]methanone]
inhibition of growth at 20 ppm [3]: ≥ 80%

O=C(c1cc(-c2ccc(F)cc2F)on1)N1Cc2ccccc2C(c2cnccc2Cl)C1 (stereo not drawn) [Compound P-24, [4-(4-chloro-3-pyridyl)-3,4-dihydro-1H-isoquinolin-2-yl]-[5-(2,4-difluorophenyl)isoxazol-3-yl]methanone]
inhibition of growth at 20 ppm [3]: ≥ 80%

Cc1nc(C2CN(C(=O)c3cc(-c4ccccc4)on3)Cc3ccccc32)c(Cl)n1C (stereo not drawn) [Compound P-31, [4-(5-chloro-1,2-dimethyl-imidazol-4-yl)-3,4-dihydro-1H-isoquinolin-2-yl]-(5-phenylisoxazol-3-yl)methanone]
inhibition of growth at 20 ppm [3]: ≥ 80%

Cn1nc(C2CN(C(=O)c3cc(-c4ccc(F)cc4F)on3)Cc3ccccc32)cc1Br (stereo not drawn) [Compound P-21, [4-(5-bromo-1-methyl-pyrazol-3-yl)-3,4-dihydro-1H-isoquinolin-2-yl]-[5-(2,4-difluorophenyl)isoxazol-3-yl]methanone]
inhibition of growth at 20 ppm [3]: ≥ 80%

Cc1ncc(C2CN(C(=O)c3cc(-c4ccc(F)cc4F)on3)Cc3ccccc32)cc1Cl (stereo not drawn) [Compound P-23, [4-(5-chloro-6-methyl-3-pyridyl)-3,4-dihydro-1H-isoquinolin-2-yl]-[5-(2,4-difluorophenyl)isoxazol-3-yl]methanone]
inhibition of growth at 20 ppm [3]: ≥ 80%

Cc1c(C2CN(C(=O)c3nnc(-c4ccc(F)cc4F)s3)Cc3ccccc32)cc(C#N)n1C (stereo not drawn) [Compound P-28, 4-[2-(5-(2,4-difluorophenyl)-1,3,4-thiadiazole-2-carbonyl]-3,4-dihydro-1H-isoquinolin-4-yl]-1,5-dimethyl-pyrrole-2-carbonitrile]
inhibition of growth at 20 ppm [3]: ≥ 80%

Cc1c(C2CN(C(=O)c3cc(-c4ccccc4)on3)Cc3ccccc32)cc(C#N)n1C (stereo not drawn) [Compound P-26, 1,5-dimethyl-4-[2-(5-phenylisoxazole-3-carbonyl)-3,4-dihydro-1H-isoquinolin-4-yl]pyrrole-2-carbonitrile]
inhibition of growth at 20 ppm [3]: ≥ 80%

Cc1c(C2CN(C(=O)c3nnc(-c4ccc(F)cc4F)s3)Cc3ccccc32)nc(Cl)n1C (stereo not drawn) [Compound P-11, [4-(2-chloro-1,5-dimethyl-imidazol-4-yl)-3,4-dihydro-1H-isoquinolin-2-yl]-[5-(2,4-difluorophenyl)-1,3,4-thiadiazol-2-yl]methanone]
inhibition of growth at 20 ppm [1]: ≥ 80%
inhibition of growth at 20 ppm [3]: ≥ 80%

Cc1c(C2CN(C(=O)c3cc(-c4ccc(F)cc4F)on3)Cc3ccccc32)cc(C#N)n1C (stereo not drawn) [Compound P-20, 4-[2-[5-(2,4-difluorophenyl)isoxazole-3-carbonyl]-3,4-dihydro-1H-isoquinolin-4-yl]-1,5-dimethyl-pyrrole-2-carbonitrile]
inhibition of growth at 20 ppm [3]: ≥ 80%

O=C(c1cc(-c2ccc(F)cc2F)on1)N1Cc2ccccc2C(c2cccnn2)C1 (stereo not drawn) [Compound P-36, [5-(2,4-difluorophenyl)isoxazol-3-yl]-(4-pyridazin-3-yl-3,4-dihydro-1H-isoquinolin-2-yl)methanone]
inhibition of growth at 20 ppm [3]: ≥ 80%

Cc1nc(C2CN(C(=O)c3cc(-c4ccc(F)cc4F)on3)Cc3ccccc32)no1 (stereo not drawn) [Compound P-25, [5-(2,4-difluorophenyl)isoxazol-3-yl]-[4-(5-methyl-1,2,4-oxadiazol-3-yl)-3,4-dihydro-1H-isoquinolin-2-yl]methanone]
inhibition of growth at 20 ppm [3]: ≥ 80%

O=C(c1cc(-c2ccc(F)cc2F)on1)N1Cc2ccccc2C(c2ccccn2)C1 (stereo not drawn) [Compound P-15, [5-(2,4-difluorophenyl)isoxazol-3-yl]-[4-(2-pyridyl)-3,4-dihydro-1H-isoquinolin-2-yl]methanone]
inhibition of growth at 20 ppm [2]: ≥ 80%
inhibition of growth at 20 ppm [3]: ≥ 80%

CC1(c2cccnc2)CN(C(=O)c2cc(-c3ccccc3)on2)Cc2ccccc21 (stereo not drawn) [Compound P-32, [4-methyl-4-(3-pyridyl)-1,3-dihydroisoquinolin-2-yl]-(5-phenylisoxazol-3-yl)methanone]
inhibition of growth at 20 ppm [3]: ≥ 80%

O=C(c1cc(-c2ccccc2)on1)N1Cc2ccccc2C(c2ccc(F)nc2)C1 (stereo not drawn) [Compound P-34, [4-(6-fluoro-3-pyridyl)-3,4-dihydro-1H-isoquinolin-2-yl]-(5-phenylisoxazol-3-yl)methanone]
inhibition of growth at 20 ppm [3]: ≥ 80%

Cn1cc(C2CN(C(=O)c3cc(-c4ccc(F)cc4F)on3)Cc3ccccc32)nn1 (stereo not drawn) [Compound P-35, [5-(2,4-difluorophenyl)isoxazol-3-yl]-[4-(1-methyltriazol-4-yl)-3,4-dihydro-1H-isoquinolin-2-yl]methanone]
inhibition of growth at 20 ppm [3]: ≥ 80%

Cc1ncc(C2CN(C(=O)c3cc(-c4ccccc4)on3)Cc3ccccc32)cc1Cl (stereo not drawn) [Compound P-29, [4-(5-chloro-6-methyl-3-pyridyl)-3,4-dihydro-1H-isoquinolin-2-yl]-(5-phenylisoxazol-3-yl)methanone]
inhibition of growth at 20 ppm [3]: ≥ 80%

Cc1ncccc1C1CN(C(=O)c2cc(-c3ccc(F)cc3F)on2)Cc2ccccc21 (stereo not drawn) [Compound P-13, [5-(2,4-difluorophenyl)isoxazol-3-yl]-[4-(2-methyl-3-pyridyl)-3,4-dihydro-1H-isoquinolin-2-yl]methanone]
inhibition of growth at 20 ppm [1]: ≥ 80%
inhibition of growth at 20 ppm [3]: ≥ 80%

Cc1cncc(C2CN(C(=O)c3cc(-c4ccc(F)cc4F)on3)Cc3ccccc32)c1 (stereo not drawn) [Compound P-22, [5-(2,4-difluorophenyl)isoxazol-3-yl]-[4-(5-methyl-3-pyridyl)-3,4-dihydro-1H-isoquinolin-2-yl]methanone]
inhibition of growth at 20 ppm [3]: ≥ 80%

Cc1ccncc1C1CN(C(=O)c2cc(-c3ccc(F)cc3F)on2)Cc2ccccc21 (stereo not drawn) [Compound P-14, [5-(2,4-difluorophenyl)isoxazol-3-yl]-[4-(4-methyl-3-pyridyl)-3,4-dihydro-1H-isoquinolin-2-yl]methanone]
inhibition of growth at 20 ppm [1]: ≥ 80%
inhibition of growth at 20 ppm [3]: ≥ 80%

Cc1c(C2CN(C(=O)c3cc(-c4ccc(F)cc4F)on3)Cc3ccccc32)nc(Cl)n1C (stereo not drawn) [Compound P-16, [4-(2-chloro-1,5-dimethyl-imidazol-4-yl)-3,4-dihydro-1H-isoquinolin-2-yl]-[5-(2,4-difluorophenyl)isoxazol-3-yl]methanone]
inhibition of growth at 20 ppm [3]: ≥ 80%
